Patent US7741342B2, “Water-soluble thalidomine derivatives” (priority 2003, dated 2010)
Read-outs that look alike come from different tables or passages of the source.

Key:
[1] = aqueous solution stability; details: hydrochloride salt
[2] = buffer

| aqueous solution stability t1/2 [1] [h] | aqueous solution stability t1/2 [2] [h] | SMILES |
| --- | --- | --- |
|  | > 8 | CCN(CC)CC(=O)OCN1C(=O)CCC(N2C(=O)c3ccccc3C2=O)C1=O.Cl (centres unmarked) [Example 4, Diethylaminoacetic acid 2-(1-(hydroxymethyl)-2,6-dioxopiperidin-3-yl)isoindoline-1,3-dione ester hydrochloride] |
|  | > 4 | CN(C)CC(=O)OCN1C(=O)CCC(N2C(=O)c3ccccc3C2=O)C1=O.Cl (centres unmarked) [Example 5, Dimethylaminoacetic acid 2-(1-(hydroxymethyl)-2,6-dioxopiperidin-3-yl)isoindoline-1,3-dione ester hydrochloride salt] |

More lines, now with the values behind:

| SMILES | aqueous solution stability t1/2 [1] [h] | aqueous solution stability t1/2 [2] [h] |
| --- | --- | --- |
| CCN(CC)CC(=O)N[C@H](C(=O)OCN1C(=O)CCC(N2C(=O)c3ccccc3C2=O)C1=O)C(C)C.Cl (stereo partly drawn) [Example 1, (S)-2-(diethylaminoacetamido)-3-methyl butyric acid 2-(1-(hydroxymethyl)-2,6-dioxopiperidin-3-yl)isoindoline-1,3-dione ester hydrochloride] | > 8 |  |
| CC(C)[C@H](NC(=O)CN(C)C)C(=O)OCN1C(=O)CCC(N2C(=O)c3ccccc3C2=O)C1=O.Cl (stereo partly drawn) [Example 2, (S)-2-(dimethylaminoacetamido)-3-methyl butyric acid 2-(1-(hydroxymethyl)-2,6-dioxopiperidin-3-yl)isoindoline-1,3-dione ester hydrochloride] | > 8 |  |
| CC(C)[C@H](NC(=O)CN1CCCCC1)C(=O)OCN1C(=O)CCC(N2C(=O)c3ccccc3C2=O)C1=O.Cl (stereo partly drawn) [Example 3, (S)-2-(1-piperidinylacetamido)-3-methyl butyric acid 2-(1-(hydroxymethyl)-2,6-dioxopiperidin-3-yl)isoindoline-1,3-dione ester hydrochloride] | > 8 |  |
